These results are taken from PMC9500072, “Topical application of an irreversible small molecule inhibitor of lysyl oxidases ameliorates skin scarring and fibrosis” (Nature Communications, 2022).

By inhibition is commonly meant the drop in the measured response relative to a control, in per cent.

Structures are written as SMILES.

The target of one data set is Melatonin MT1 (Homo sapiens, UniProt P48039). In words: Eurofins panel 251600. The class given is binding.
In the next data set the test system is Thyroid Hormone. In words: Eurofins panel 285900. As to conditions: 10 µM. Format: binding, rat.
The target in the next data set is Calcium Channel N-Type (Rattus norvegicus, UniProt Q02294). Kind of data set: Eurofins panel 216000. The class given is binding.
For the next data set, the target named is Prostanoid EP4 (Homo sapiens, UniProt P35408). In words: Eurofins panel 268420. The class given is binding.
The subject of another data set is Glutamate, NMDA, Glycine. In words: Eurofins panel 232910. Particulars: 10 µM. The class given is binding, rat.
A further data set addresses Adenosine A1 (Homo sapiens, UniProt P30542). In words: Eurofins panel 200510. The class given is binding.
A further data set addresses Neuropeptide Y Y2 (Homo sapiens, UniProt P49146). In words: Eurofins panel 257110. The class given is binding.
The subject of another data set is Phorbol Ester. Kind of data set: Eurofins panel 264500. Format: binding, mouse. Particulars: 10 µM.
Another data set relates to Glutamate, Kainate. In words: Eurofins panel 232700. Format: binding, rat. Particulars: 10 µM.
The next data set has as its target Adrenergic α1B (Rattus norvegicus, UniProt P15823). In words: Eurofins panel 203200. The class given is binding.
The nature of data set [1]: LeadProfilingScreen, Eurofins CEREP Panlabs, 68 assays. As to conditions: test concentration 10 µM. Format: binding.
A further data set concerns the target Dopamine D4.2 (Homo sapiens, UniProt P21917, DEL265-296). Kind of data set: Eurofins panel 219900. Format: binding.
Data set [2] deals with Cholecystokinin CCK1 (CCKA) (Homo sapiens, UniProt P32238). Kind of data set: Eurofins panel 218030. Format: binding.
Data set [3] deals with Serotonin (5-Hydroxytryptamine) 5-HT1B (Homo sapiens, UniProt P28222). Kind of data set: Eurofins panel 271230. The class given is binding.
Another data set has as its target hERG potassium channel (Homo sapiens, UniProt Q12809). Kind of data set: Eurofins panel 265910. Format: binding. As to conditions: probe [3H]Dofetilide.
The next data set deals with Phosphodiesterase PDE4D2 (Homo sapiens, UniProt Q08499). Kind of data set: Eurofins panel 154420. Format: biochemical.
In data set [4] the target is Protein Tyrosine Kinase, LCK (Homo sapiens, UniProt P06239). In words: Eurofins panel 176020. Format: biochemical.
A further data set is described as follows: PAMPA permeability. Format: in vitro ADME. (In general: PAMPA measures passive passage across an artificial lipid membrane.)
For another data set, the target named is Cannabinoid CB2 (Homo sapiens, UniProt P34972). Kind of data set: Eurofins panel 217100. The class given is binding.
Data set [5] addresses Nicotinic Acetylcholine α1β2, Cytisine (Homo sapiens, UniProt P17787+P43681). Kind of data set: Eurofins panel 299031. Format: binding.
Data set [6] deals with MDCKII cells transfected with P-glycoprotein (Pgp). In words: MDCKII-Pgp permeability. Format: in vitro ADME. As to conditions: unaffected by the presence of the Pgp-inhibitor. Here is the method: The penetration of PXS-6302 across a monolayer of cells was tested using Caco-2 or MDCKII cells transfected with P-glycoprotein (Pgp).
For the next data set, the system named is lysyl oxidases. More on the design: method as in ACTRN1262100322831. Particulars: ref ACTRN1262100322831; cited from earlier work.

Sequence of Adrenergic α1B (P15823 whole entry): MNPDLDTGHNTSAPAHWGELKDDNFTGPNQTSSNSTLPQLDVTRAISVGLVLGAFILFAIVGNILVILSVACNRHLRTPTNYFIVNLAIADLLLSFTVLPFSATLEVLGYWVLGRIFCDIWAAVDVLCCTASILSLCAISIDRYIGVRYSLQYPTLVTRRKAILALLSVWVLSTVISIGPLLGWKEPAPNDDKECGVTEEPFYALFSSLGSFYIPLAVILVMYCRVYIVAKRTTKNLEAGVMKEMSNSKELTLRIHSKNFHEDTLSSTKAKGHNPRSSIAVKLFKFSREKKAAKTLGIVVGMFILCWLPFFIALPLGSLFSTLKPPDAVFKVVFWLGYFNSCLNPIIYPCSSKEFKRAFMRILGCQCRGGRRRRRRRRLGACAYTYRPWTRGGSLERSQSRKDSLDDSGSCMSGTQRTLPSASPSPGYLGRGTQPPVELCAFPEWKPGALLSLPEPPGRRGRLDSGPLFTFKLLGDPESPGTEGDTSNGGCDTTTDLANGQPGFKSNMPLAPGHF
Sequence of Melatonin MT1 (P48039 whole entry): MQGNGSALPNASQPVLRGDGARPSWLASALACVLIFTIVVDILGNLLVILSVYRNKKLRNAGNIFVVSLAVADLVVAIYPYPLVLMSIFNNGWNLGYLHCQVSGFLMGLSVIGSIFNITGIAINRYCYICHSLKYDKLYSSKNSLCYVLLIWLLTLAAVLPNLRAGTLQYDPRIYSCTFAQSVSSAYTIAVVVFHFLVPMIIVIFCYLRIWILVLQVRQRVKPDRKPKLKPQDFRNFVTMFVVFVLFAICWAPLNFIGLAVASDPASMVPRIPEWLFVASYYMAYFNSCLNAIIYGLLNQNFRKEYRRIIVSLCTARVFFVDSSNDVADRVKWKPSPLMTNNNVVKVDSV
Sequence of Calcium Channel N-Type (Q02294 whole entry): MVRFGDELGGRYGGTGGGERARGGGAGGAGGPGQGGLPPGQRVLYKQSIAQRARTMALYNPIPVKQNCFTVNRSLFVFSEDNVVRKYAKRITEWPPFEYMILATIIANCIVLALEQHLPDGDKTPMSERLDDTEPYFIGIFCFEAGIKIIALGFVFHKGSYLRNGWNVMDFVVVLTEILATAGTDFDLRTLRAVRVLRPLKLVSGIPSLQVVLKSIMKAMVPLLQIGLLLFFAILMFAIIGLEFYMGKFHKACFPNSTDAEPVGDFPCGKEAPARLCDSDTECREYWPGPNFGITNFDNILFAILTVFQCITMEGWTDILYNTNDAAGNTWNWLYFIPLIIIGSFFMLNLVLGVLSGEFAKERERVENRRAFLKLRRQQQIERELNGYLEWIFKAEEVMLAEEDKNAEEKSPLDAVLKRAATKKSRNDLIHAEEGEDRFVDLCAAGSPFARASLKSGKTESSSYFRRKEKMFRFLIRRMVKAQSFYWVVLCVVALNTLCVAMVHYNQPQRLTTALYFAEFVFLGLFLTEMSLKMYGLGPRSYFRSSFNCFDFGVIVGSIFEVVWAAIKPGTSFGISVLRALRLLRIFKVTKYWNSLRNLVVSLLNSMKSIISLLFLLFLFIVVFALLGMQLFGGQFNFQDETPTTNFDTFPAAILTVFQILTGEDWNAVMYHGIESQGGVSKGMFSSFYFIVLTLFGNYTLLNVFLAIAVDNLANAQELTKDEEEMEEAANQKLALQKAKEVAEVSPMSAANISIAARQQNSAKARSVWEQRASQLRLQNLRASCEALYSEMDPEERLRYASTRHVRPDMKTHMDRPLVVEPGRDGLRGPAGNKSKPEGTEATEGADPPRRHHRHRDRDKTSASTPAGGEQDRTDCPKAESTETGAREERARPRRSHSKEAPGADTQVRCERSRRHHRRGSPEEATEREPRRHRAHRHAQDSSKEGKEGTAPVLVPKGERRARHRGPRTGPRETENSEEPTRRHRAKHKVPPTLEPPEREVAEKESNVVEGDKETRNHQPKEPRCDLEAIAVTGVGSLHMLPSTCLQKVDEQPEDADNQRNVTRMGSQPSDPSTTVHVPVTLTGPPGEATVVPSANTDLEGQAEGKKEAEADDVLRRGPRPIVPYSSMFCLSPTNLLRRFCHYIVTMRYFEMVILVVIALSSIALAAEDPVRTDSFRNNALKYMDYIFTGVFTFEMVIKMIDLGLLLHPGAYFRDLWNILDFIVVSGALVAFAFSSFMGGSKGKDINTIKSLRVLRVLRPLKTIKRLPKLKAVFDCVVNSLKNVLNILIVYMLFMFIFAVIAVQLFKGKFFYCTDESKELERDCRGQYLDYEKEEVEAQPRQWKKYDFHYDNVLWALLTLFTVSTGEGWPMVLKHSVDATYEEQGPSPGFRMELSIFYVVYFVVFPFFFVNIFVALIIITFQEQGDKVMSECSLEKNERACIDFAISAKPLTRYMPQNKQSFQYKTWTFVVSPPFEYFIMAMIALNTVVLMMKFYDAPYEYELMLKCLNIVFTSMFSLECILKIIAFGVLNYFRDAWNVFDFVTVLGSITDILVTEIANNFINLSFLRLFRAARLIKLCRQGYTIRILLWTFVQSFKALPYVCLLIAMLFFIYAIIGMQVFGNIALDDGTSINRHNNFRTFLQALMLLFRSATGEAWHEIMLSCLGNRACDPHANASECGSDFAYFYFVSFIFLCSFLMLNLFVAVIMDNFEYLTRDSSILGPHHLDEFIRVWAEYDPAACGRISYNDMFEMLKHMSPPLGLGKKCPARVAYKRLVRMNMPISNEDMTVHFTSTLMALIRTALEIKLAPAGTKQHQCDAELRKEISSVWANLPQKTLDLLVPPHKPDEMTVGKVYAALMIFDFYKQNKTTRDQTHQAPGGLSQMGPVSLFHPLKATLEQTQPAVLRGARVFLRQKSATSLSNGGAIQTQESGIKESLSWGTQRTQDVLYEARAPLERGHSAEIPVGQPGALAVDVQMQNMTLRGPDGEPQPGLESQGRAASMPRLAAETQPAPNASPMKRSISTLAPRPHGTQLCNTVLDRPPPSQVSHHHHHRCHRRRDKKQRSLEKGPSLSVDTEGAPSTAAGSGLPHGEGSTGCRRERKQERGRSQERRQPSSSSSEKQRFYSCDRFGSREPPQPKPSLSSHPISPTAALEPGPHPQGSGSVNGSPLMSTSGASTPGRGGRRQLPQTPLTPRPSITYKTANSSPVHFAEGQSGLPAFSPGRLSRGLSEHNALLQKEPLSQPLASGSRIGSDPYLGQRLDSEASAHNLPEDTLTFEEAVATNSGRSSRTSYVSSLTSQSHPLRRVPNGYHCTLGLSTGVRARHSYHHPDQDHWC
Sequence of Serotonin (5-Hydroxytryptamine) 5-HT1B (P28222 whole entry): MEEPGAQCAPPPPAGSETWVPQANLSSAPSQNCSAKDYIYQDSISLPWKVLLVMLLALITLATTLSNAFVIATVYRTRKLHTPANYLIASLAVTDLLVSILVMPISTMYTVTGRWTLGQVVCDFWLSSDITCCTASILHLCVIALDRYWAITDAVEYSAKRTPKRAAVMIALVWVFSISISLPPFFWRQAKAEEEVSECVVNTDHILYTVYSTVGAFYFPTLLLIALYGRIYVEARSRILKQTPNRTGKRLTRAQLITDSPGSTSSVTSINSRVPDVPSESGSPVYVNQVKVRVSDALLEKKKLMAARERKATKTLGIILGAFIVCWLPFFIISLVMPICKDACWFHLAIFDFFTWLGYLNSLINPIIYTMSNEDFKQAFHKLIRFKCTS
Sequence of Cholecystokinin CCK1 (CCKA) (P32238 whole entry): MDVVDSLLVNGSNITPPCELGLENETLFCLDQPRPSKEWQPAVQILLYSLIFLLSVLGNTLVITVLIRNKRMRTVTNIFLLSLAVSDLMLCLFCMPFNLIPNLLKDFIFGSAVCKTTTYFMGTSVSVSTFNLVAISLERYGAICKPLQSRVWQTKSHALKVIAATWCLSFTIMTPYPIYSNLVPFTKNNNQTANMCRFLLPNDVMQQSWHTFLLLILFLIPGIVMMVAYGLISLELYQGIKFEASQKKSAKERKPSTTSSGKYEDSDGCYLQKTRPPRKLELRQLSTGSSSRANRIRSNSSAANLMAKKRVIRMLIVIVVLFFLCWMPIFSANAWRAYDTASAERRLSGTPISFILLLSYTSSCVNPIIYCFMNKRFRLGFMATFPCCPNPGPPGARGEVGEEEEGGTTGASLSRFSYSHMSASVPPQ
Sequence of Prostanoid EP4 (P35408 whole entry): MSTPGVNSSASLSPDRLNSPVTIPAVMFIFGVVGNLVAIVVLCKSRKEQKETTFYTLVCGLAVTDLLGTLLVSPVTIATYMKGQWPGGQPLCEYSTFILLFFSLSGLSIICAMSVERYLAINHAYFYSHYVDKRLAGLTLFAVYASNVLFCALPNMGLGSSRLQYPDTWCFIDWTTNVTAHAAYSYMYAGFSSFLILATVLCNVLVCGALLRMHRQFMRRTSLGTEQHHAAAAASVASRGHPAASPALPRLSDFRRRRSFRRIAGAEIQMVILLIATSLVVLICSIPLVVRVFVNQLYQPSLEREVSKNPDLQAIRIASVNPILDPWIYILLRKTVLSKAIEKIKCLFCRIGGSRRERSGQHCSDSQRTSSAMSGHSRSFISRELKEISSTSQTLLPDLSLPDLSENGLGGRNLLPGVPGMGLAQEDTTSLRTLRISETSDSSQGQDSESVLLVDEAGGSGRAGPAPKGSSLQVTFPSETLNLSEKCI
Sequence of Neuropeptide Y Y2 (P49146 whole entry): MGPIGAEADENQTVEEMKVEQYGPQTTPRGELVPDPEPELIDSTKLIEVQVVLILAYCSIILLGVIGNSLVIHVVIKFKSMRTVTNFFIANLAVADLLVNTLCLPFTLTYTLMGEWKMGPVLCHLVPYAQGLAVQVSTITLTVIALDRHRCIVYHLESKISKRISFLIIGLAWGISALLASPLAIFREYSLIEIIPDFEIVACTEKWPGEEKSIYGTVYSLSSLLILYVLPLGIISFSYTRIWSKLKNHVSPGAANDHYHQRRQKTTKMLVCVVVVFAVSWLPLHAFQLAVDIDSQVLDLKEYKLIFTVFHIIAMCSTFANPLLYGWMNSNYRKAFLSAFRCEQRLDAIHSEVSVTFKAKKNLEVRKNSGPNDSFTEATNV

`NC/C=C(\F)CS(=O)(=O)c1ccccc1` [PXS-4787]: the inhibition at 10 µM at Melatonin MT1 is -2%; at Calcium Channel N-Type it was 0%; on Prostanoid EP4, -2%; against Adenosine A1, 1%; at Neuropeptide Y Y2 it was 0%; on Adrenergic α1B it was -2%. At Dopamine D4.2, the inhibition at 10 µM turned out to be 1%. For the same molecule, the “% Inh.” value in the data set on Thyroid Hormone amounted to 0%; in the data set on Glutamate, NMDA, Glycine, 5%; with Phorbol Ester, 5%; in the data set with Glutamate, Kainate, 16%. The “profile in broad panel of macromolecular targets” value in [1] is “clean”.

For the molecule `NC/C=C(\F)C(F)(F)S(=O)(=O)c1ccccc1` [PXS-6302], the inhibition at 30 µM in data set [2] is 1%; in data set [3], -3%; against hERG potassium channel, 29%; against Phosphodiesterase PDE4D2 it was 3%; in data set [4], 1%; against Cannabinoid CB2, -4%. Besides, the inhibition at 30 µM in data set [5] is -2%. The “PAMPA permeability (class in words)” value in “PAMPA permeability” was “High and high permeability”. Also, the Papp in the data set “PAMPA permeability” (GIT PAMPA at pH 7.4, read-out: PAMPA permeability, Average of P) was 168 ×10⁻⁶ cm/s. Moreover, in data set [6], the “MDCKII-Pgp permeability (class in words)” value is given as “high permeability”. In addition, the “target engagement and inhibition in phase I trial” value with lysyl oxidases was “strong target engagement and long-lasting inhibition”.
